Measured values: paper PMC7369900 (International Journal of Molecular Sciences, 2020)
Values after ≈ are worked out from the molar mass of the structure shown.

tested on: C. albicans Gu5

Going from `CC[C@H](C)[C@H](NC(=O)[C@H](CCCCN)NC(=O)[C@H](CCCCN)NC(=O)[C@H](C)NC(=O)[C@H](CC(C)C)NC(=O)[C@H](C)NC(=O)[C@H](C)NC(=O)[C@H](CC(C)C)NC(=O)[C@H](C)NC(=O)[C@H](CCCCN)NC(=O)[C@H](CC(C)C)NC(=O)[C@H](CC(N)=O)NC(=O)[C@@H](NC(=O)[C@H](CCCCN)NC(=O)CNC(=O)[C@H](CC(C)C)NC(=O)[C@H](CC(C)C)NC(=O)[C@H](Cc1ccc(O)cc1)NC(=O)CNC(=O)[C@H](C)NC(=O)[C@@H](N)CSSC[C@H](N)C(=O)N1CCN(c2cc3c(cc2F)c(=O)c(C(=O)O)cn3C2CC2)CC1)[C@@H](C)CC)C(=O)N[C@@H](CC(C)C)C(N)=O` [Compound 6, CIPC-S-S-CTP10-NH2] to `CC[C@H](C)[C@H](NC(=O)[C@H](CCCCN)NC(=O)[C@H](CCCCN)NC(=O)[C@H](C)NC(=O)[C@H](CC(C)C)NC(=O)[C@H](C)NC(=O)[C@H](C)NC(=O)[C@H](CC(C)C)NC(=O)[C@H](C)NC(=O)[C@H](CCCCN)NC(=O)[C@H](CC(C)C)NC(=O)[C@H](CC(N)=O)NC(=O)[C@@H](NC(=O)[C@H](CCCCN)NC(=O)CNC(=O)[C@H](CC(C)C)NC(=O)[C@H](CC(C)C)NC(=O)[C@H](Cc1ccc(O)cc1)NC(=O)CNC(=O)[C@H](C)NC(=O)CCSSCCC(=O)N1CCN(c2cc3c(cc2F)c(=O)c(C(=O)O)cn3C2CC2)CC1)[C@@H](C)CC)C(=O)N[C@@H](CC(C)C)C(N)=O` [Compound 3, CIP-S-S-TP10-NH2], the MIC50 falls from 25 µM (≈ 67.9 µg/mL) to 12.5 µM (≈ 33.6 µg/mL) (2-fold).

First: CC[C@H](C)[C@H](NC(=O)[C@H](CCCCN)NC(=O)[C@H](CCCCN)NC(=O)[C@H](C)NC(=O)[C@H](CC(C)C)NC(=O)[C@H](C)NC(=O)[C@H](C)NC(=O)[C@H](CC(C)C)NC(=O)[C@H](C)NC(=O)[C@H](CCCCN)NC(=O)[C@H](CC(C)C)NC(=O)[C@H](CC(N)=O)NC(=O)[C@@H](NC(=O)[C@H](CCCCN)NC(=O)CNC(=O)[C@H](CC(C)C)NC(=O)[C@H](CC(C)C)NC(=O)[C@H](Cc1ccc(O)cc1)NC(=O)CNC(=O)[C@H](C)NC(=O)[C@@H](N)CSSC[C@H](NC(=O)c1cn2c3c(c(N4CCN(C)CC4)c(F)cc3c1=O)OC[C@@H]2C)C(=O)O)[C@@H](C)CC)C(=O)N[C@@H](CC(C)C)C(N)=O [Compound 5, LVXC-S-S-CTP10-NH2]
Second: CC[C@H](C)[C@H](NC(=O)[C@H](CCCCN)NC(=O)[C@H](CCCCN)NC(=O)[C@H](C)NC(=O)[C@H](CC(C)C)NC(=O)[C@H](C)NC(=O)[C@H](C)NC(=O)[C@H](CC(C)C)NC(=O)[C@H](C)NC(=O)[C@H](CCCCN)NC(=O)[C@H](CC(C)C)NC(=O)[C@H](CC(N)=O)NC(=O)[C@@H](NC(=O)[C@H](CCCCN)NC(=O)CNC(=O)[C@H](CC(C)C)NC(=O)[C@H](CC(C)C)NC(=O)[C@H](Cc1ccc(O)cc1)NC(=O)CNC(=O)[C@H](C)NC(=O)c1cn2c3c(c(N4CCN(C)CC4)c(F)cc3c1=O)OC[C@@H]2C)[C@@H](C)CC)C(=O)N[C@@H](CC(C)C)C(N)=O [Compound 4, LVX-TP10-NH2]
The MIC50 of the first is 2-fold lower: 12.5 µM (≈ 34.3 µg/mL) for the first, 25 µM (≈ 63.1 µg/mL) for the second.

First: CC[C@H](C)[C@H](NC(=O)[C@H](CCCCN)NC(=O)[C@H](CCCCN)NC(=O)[C@H](C)NC(=O)[C@H](CC(C)C)NC(=O)[C@H](C)NC(=O)[C@H](C)NC(=O)[C@H](CC(C)C)NC(=O)[C@H](C)NC(=O)[C@H](CCCCN)NC(=O)[C@H](CC(C)C)NC(=O)[C@H](CC(N)=O)NC(=O)[C@@H](NC(=O)[C@H](CCCCN)NC(=O)CNC(=O)[C@H](CC(C)C)NC(=O)[C@H](CC(C)C)NC(=O)[C@H](Cc1ccc(O)cc1)NC(=O)CNC(=O)[C@H](C)N)[C@@H](C)CC)C(=O)N[C@@H](CC(C)C)C(N)=O [TP10-NH2, transportan 10, reference compound]
Second: CC[C@H](C)[C@H](NC(=O)[C@H](CCCCN)NC(=O)[C@H](CCCCN)NC(=O)[C@H](C)NC(=O)[C@H](CC(C)C)NC(=O)[C@H](C)NC(=O)[C@H](C)NC(=O)[C@H](CC(C)C)NC(=O)[C@H](C)NC(=O)[C@H](CCCCN)NC(=O)[C@H](CC(C)C)NC(=O)[C@H](CC(N)=O)NC(=O)[C@@H](NC(=O)[C@H](CCCCN)NC(=O)CNC(=O)[C@H](CC(C)C)NC(=O)[C@H](CC(C)C)NC(=O)[C@H](Cc1ccc(O)cc1)NC(=O)CNC(=O)[C@H](C)NC(=O)c1cn(C2CC2)c2cc(N3CCNCC3)c(F)cc2c1=O)[C@@H](C)CC)C(=O)N[C@@H](CC(C)C)C(N)=O [Compound 2, CIP-TP10-NH2]
The MIC50 of the first is 4-fold higher: 100 µM (≈ 218 µg/mL) for the first, 25 µM (≈ 62.4 µg/mL) for the second.

Work on `CC[C@H](C)[C@H](NC(=O)[C@H](CCCCN)NC(=O)[C@H](CCCCN)NC(=O)[C@H](C)NC(=O)[C@H](CC(C)C)NC(=O)[C@H](C)NC(=O)[C@H](C)NC(=O)[C@H](CC(C)C)NC(=O)[C@H](C)NC(=O)[C@H](CCCCN)NC(=O)[C@H](CC(C)C)NC(=O)[C@H](CC(N)=O)NC(=O)[C@@H](NC(=O)[C@H](CCCCN)NC(=O)CNC(=O)[C@H](CC(C)C)NC(=O)[C@H](CC(C)C)NC(=O)[C@H](Cc1ccc(O)cc1)NC(=O)CNC(=O)[C@H](C)NC(=O)CN1CCN(c2cc3c(cc2F)c(=O)c(C(=O)O)cn3C2CC2)CC1)[C@@H](C)CC)C(=O)N[C@@H](CC(C)C)C(N)=O` [Compound 1, CIP-CH2CO-TP10-NH2] yielded an MIC50 of 50 µM (≈ 128 µg/mL).
